# Measurements as given in patent US8318641B2, “Systems and methods for the detection of biomarkers” (priority 2010, dated 2012).
# T1: Lysozyme (Homo sapiens, UniProt P61626)
# T1 sequence (P61626 19-148): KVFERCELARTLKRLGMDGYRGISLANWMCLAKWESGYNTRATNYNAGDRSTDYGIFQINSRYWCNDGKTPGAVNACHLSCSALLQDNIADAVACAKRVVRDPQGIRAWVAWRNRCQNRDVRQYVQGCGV
# T2: α-amylase (Homo sapiens, UniProt P0DUB6)
# T2 sequence (P0DUB6 16-511): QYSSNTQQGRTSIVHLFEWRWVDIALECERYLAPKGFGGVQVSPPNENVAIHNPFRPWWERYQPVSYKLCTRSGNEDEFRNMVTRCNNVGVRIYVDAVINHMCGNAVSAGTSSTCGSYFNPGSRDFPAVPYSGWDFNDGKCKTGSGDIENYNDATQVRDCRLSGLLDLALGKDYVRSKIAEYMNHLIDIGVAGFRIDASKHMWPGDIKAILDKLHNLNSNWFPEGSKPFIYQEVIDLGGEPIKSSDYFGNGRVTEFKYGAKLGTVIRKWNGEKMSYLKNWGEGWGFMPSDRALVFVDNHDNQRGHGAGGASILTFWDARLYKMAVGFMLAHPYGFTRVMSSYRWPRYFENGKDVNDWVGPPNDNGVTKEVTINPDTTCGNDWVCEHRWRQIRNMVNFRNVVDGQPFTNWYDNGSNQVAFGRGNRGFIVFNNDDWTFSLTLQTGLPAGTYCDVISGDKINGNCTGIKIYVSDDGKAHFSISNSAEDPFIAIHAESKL
# B1: Soybeans: primary soybean protease inhibitor, 20.7-22.3 kDa (protein, UniProt P01070 25-205, looked up)
# Trypsin inhibitor A: DFVLDNEGNPLENGGTYYILSDITAFGGIRAAPTGNERCPLTVVQSRNELDKGIGTIISSPYRIRFIAEGHPLSLKFDSFAVIMLCVGIPTEWSVVEDLPEGPAVKIGENKDAMDGWFRLERVSDDEFNNYKLVFCPQQAEDDKCGDIGISIDHDDGTRRLVVSKNKPLVVQFQKLDKESL
# What was measured:
# peroxidase = experiment: Peroxidase assay in saliva (Amplex Red); assay type: biochemical; conditions: test compound prepared at 500 ppm, 30 minutes, FIGS. 26-29
# Experimental: To determine the effect of various GRAS compounds as inhibitors of peroxidase activity, a standard assay using Amplex® Red (Life Technologies), which releases a fluorescent oxidation product.
# The test compounds, such as GRAS materials or cocktails of same, were prepared at a concentration of 500 ppm in distilled water. For the assay, 50 μl samples of test compounds were mixed with 20-30 μl of saliva (either “pooled” or “unpooled”) prior to the addition of Amplex® Red. […] Reactions were allowed to run for 30 minutes during these assays.
# Lysozyme = target: T1, Lysozyme; experiment: Lysozyme inhibition saliva screening (fluorescein-labeled Micrococcus lysodeikticus); assay type: biochemical; conditions: 100% saliva samples (data not shown)
# Description: Further details of these five compounds may also be seen in Table 5.
# α-amylase = target: T2, α-amylase; experiment: α-Amylase inhibition saliva screening (2-chloro-p-nitrophenol-maltotriose substrate, absorbance 405 nm); assay type: biochemical
# Description: Further details of these five compounds may also be seen in Table 4.
# protease = conditions: cited from earlier work
Molecule,peroxidase inhibition (peroxidase),Ave (absorbance at 405 nm) (α-amylase; Time 0 min),further results
"Cn1c(=O)c2c(ncn2C)n(C)c1=O [CDI #33, Caffeine]",significant peroxidase inhibition capabilities,,
"COc1ccc(O)c(C(C)(C)C)c1 [CDI-039, 3-tert--butyl-hydroxyanisole]",significant peroxidase inhibition capabilities,,
"CC(=O)O [CDI-047, Acetic acid]",,,Lysozyme inhibition (Lysozyme): shown to inhibit Lysozyme
Aluminum potassium sulfate dodecahydrate [CDI-42],significant peroxidase inhibition capabilities,0.92,
Aluminum sulfate hydrate [CDI-34],,0.40,Ave (absorbance at 405 nm) (α-amylase; Time 5 min): 0.50; Ave (absorbance at 405 nm) (α-amylase; Time 15 min): 0.56
B1,,,Inhibitory power (protease): 1.2 times times weight
